From patent publication US20250296959A1, “B7-H3 TARGETING PEPTIDES AND CONSTRUCTS THEREOF” (Mariana Oncology Inc., priority 2024, published 2025)
pKd: −log10 of the molar value. Like-named read-outs stand apart in the source and are kept apart here. Starred links: 1 amine or outer side, 2 acyl side, 3 side chain; linkers in the order of their positions; H or OH if unused. Positions of bridges follow the written chain, without caps; N, C: chain ends. Non-standard residues stand in square brackets, D forms with d. Residues, ends and D or L forms follow the SMILES beside them. Groups on a side chain read outwards from the residue. *: point of attachment. X4 = O=C(O)CN1CCN(CC(=O)O)CCN([C@H](CCC(=O)*)C(=O)O)CCN(CC(=O)O)CC1; Ala(piperidin-4-yl) = O=C([C@H](CC1CCN([*:3])CC1)N[*:1])[*:2]; DOTA = O=C(O)CN1CCN(CC(=O)O)CCN(CC(=O)*)CCN(CC(=O)O)CC1; Phe(4-COOH) = N[C@@H](Cc1ccc(C(=O)O)cc1)C(=O)O; Trp(5-F) = N[C@@H](Cc1c[nH]c2ccc(F)cc12)C(=O)O; Ala(4-THP) = N[C@@H](CC1CCOCC1)C(=O)O; Val(3-OH) = CC(C)(O)[C@H](N)C(=O)O; 4Pal = N[C@@H](Cc1ccncc1)C(=O)O; Aad = N[C@@H](CCCC(=O)O)C(=O)O; NMeK = CN[C@@H](CCCCN)C(=O)O; PEG4 = NCCOCCOCCOCCOCCC(=O)O; Tle = CC(C)(C)[C@H](N)C(=O)O; hLeu = CC(C)CC[C@H](N)C(=O)O; Nle = CCCC[C@H](N)C(=O)O

What was measured:
Calu-6 cell line [1] = test: Cell associated (bound) fraction of [177Lu]Lu-labeled peptide in Calu-6 cells; format: cell-based, Human; settings: 1 hour, 37° C.
Description: (§1) [^177Lu]LuCl3 was received from venders in HCl solution. For every mCi of [^177Lu]LuCl3 added to the reaction vial (1.5 mL Eppendorf vial), ammonium acetate buffer (0.2 M, pH 4.9, 100 μL, containing 1% w/v ascorbic acid and 6% v/v ethanol) and peptide conjugate (1 nmol) was added. The pH of the solution was determined to be approximately 5 by using pH strips. The reaction vial was incubated at 80° C., 700 RPM for 17-20 minutes. A sample from the reaction was analyzed by RP-HPLC using an Agilent Infinity II 1260 HPLC to determine reaction completion and radiochemical purity. HPLC conditions: Waters XBridge BEH C18 Column, 130 Å, 3.5 μm, 4.6 mm×250 mm; mobile phase: Solvent A=water (with 0.1% formic acid), solvent B=acetonitrile (with 0.1% formic acid). Gradients: 25-45% B in 10 minutes, 45-65% B in 12 minutes, 65-90% in 6 minutes at a flow rate of 0.5 mL/minute. Required amounts of the product were formulated in 1% PBSA for cell studies.
(§2) The study was conducted using Calu-6 cell line (Table 8)
(§3) Adherent cell studies: The cells were cultured in appropriate culture media (20 mL) in tissue culture treated T150 flasks at 37° C. and 5% CO2. Adherent cells were detached (60-70% confluent) using 5 mL Versene at 37° C. for 3 minutes. After confirming the viability using countess and count of detached cells using Trypan blue, the cells were centrifuged at 4° C. for 5 minutes (1,000 revolutions per minute). The cell pellet obtained was washed once with PBS and resuspended in 1% PBSA to obtain the desired cell concentration (5 million cells/mL).
Cell associated fraction: Cells were incubated with 300 μL (0.8 μCi) of the incubation buffer (containing radiolabeled peptide [^177Lu]Lu-test peptide) for 1 hour at 37 C (Table 9). Post incubation, the cells were pelleted and washed 2 times using cold PBS+1% BSA. The supernatant and washes were combined and counted together as “unbound fraction” in a gamma counter. The cells were then resuspended in 300 μL of 1% PBS+1% BSA and counted in the gamma counter as cell associated fraction (or bound fraction).
(§4) Calu-6 Cells are Human-Derived, Non-Engineered Lung Cancer Cell that Express B7-H3.

Calu-6 cell line [2] = test: Net internalization of [177Lu]Lu-labeled peptide in Calu-6 cells; format: cell-based, Human; settings: 1 hour, 37° C., glycine pH 2.5 acid wash
Description: as §1, §2, §3
Net internalization: The resuspended cells in 300 μl of 1% PBSA and counted in the gamma counter as “bound fraction” were collected in 1.5 mL Eppendorf tube and pelleted. The pelleted cells were incubated with 300 μl of 50 mM Glycine pH=2.5 for 3 minutes and then pelleted discarding the supernatant. This process was repeated one more time. The pelleted cells were washed with 300 μl of cold 1% PBSA and then resuspended in 300 μl 0.3 M NaOH. This was counted in the gamma counter as “internalized fraction”.
as §4

human 4lg B7-H3 = molecular target: T1, human 4lg B7-H3 (Homo sapiens, UniProt Q5ZPR3); test: Affinity determination by surface plasmon resonance (SPR) to 4Ig B7-H3; settings: 4Ig B7-H3
T1 sequence (Q5ZPR3 29-534): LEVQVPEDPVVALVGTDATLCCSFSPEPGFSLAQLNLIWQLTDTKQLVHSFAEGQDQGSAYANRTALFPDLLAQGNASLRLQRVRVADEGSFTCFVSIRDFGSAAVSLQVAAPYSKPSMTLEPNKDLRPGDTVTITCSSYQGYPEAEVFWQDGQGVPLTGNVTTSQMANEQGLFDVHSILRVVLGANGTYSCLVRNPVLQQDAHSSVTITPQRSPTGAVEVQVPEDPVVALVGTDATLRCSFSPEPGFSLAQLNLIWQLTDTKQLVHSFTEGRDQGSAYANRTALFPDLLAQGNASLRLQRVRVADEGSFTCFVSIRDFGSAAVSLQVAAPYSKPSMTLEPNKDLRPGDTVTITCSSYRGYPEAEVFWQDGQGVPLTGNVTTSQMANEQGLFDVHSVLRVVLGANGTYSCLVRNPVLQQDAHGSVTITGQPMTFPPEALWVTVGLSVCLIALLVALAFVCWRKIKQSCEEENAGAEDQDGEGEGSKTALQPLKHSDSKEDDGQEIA

[3] = read-out: SPR KD—37° C., 37° C. flow cell temperature
[4] = SPR KD—25° C., 25° C. flow cell temperature

Compound | % cell associated fraction (Calu-6 cell line [1]) | % net internalization (Calu-6 cell line [2]) | pKd (human 4lg B7-H3; read-out: SPR KD—25° C., 25° C. flow cell temperature) | pKd (human 4lg B7-H3; [3]) | pKd (human 4lg B7-H3; [4])
CC(=O)N[C@@H](CCC(C)C)C(=O)N[C@@H](Cc1ccc(O)cc1)C(=O)N[C@H]1CSSC[C@@H](C(=O)N[C@@H](Cc2c[nH]c3ccccc23)C(=O)N[C@@H](Cc2ccccc2)C(=O)N[C@H](C(=O)N[C@H](CCCCNC(=O)CN2CCN(CC(=O)O)CCN(CC(=O)O)CCN(CC(=O)O)CC2)C(N)=O)[C@@H](C)O)NC(=O)[C@H](Cc2ccc(O)cc2)NC(=O)[C@H](C(C)C)NC(=O)[C@H](CC(=O)O)NC(=O)[C@H](Cc2ccncc2)NC(=O)[C@H](CCCCN)NC(=O)CNC(=O)[C@H](C(C)(C)C)NC1=O [compound 157, Ac-hLeu-Y-C-Tbg-G-K-4PyA-D-V-Y-C-W-F-Thr-dLys(DOTA)-CONH2] (Ac-[hLeu]YC[Tle]GK[4Pal]DVYCWFT[dK](DOTA)-NH2; disulfide 3-11) | B (25<%≤50) | A (%≤25) | > 9.00 |  | 
CC(=O)N[C@@H](CCC(C)C)C(=O)N[C@@H](Cc1ccc(O)cc1)C(=O)N[C@H]1CSSC[C@@H](C(=O)N[C@@H](Cc2c[nH]c3ccc(F)cc23)C(=O)N[C@@H](Cc2ccccc2)C(=O)N[C@H](C(=O)N[C@H](C)C(=O)O)C(C)(C)O)NC(=O)[C@H](Cc2ccc(O)cc2)NC(=O)[C@H](C(C)C)NC(=O)[C@H](CC(=O)O)NC(=O)[C@H](CC2CCN(C(=O)CCOCCOCCOCCOCCNC(=O)CN3CCN(CC(=O)O)CCN(CC(=O)O)CCN(CC(=O)O)CC3)CC2)NC(=O)[C@H](CC2CCNCC2)NC(=O)CNC(=O)[C@H](C(C)(C)C)NC1=O [compound 455, Ac-hLeu-Y-C-Tbg-G-PipAla-Pip(PEG4-DOTA)Ala-D-V-Y-C-5FW-F-hydroxyVal-dAla-COOH] (Ac-[hLeu]YC[Tle]G[Ala(piperidin-4-yl)][Ala(piperidin-4-yl)]([PEG4-DOTA])DVYC[Trp(5-F)]F[Val(3-OH)][dA]-OH; disulfide 3-11) | C (%>50) | B (25<%≤50) |  | > 9.00 | 
CC(=O)N[C@@H](CCC(C)C)C(=O)N[C@@H](Cc1ccc(O)cc1)C(=O)N[C@H]1CSSC[C@@H](C(=O)N[C@@H](Cc2c[nH]c3ccc(F)cc23)C(=O)N[C@@H](Cc2ccccc2)C(=O)N[C@H](C(=O)N[C@H](CCCCNC(=O)CC[C@H](C(=O)O)N2CCN(CC(=O)O)CCN(CC(=O)O)CCN(CC(=O)O)CC2)C(=O)O)C(C)(C)O)NC(=O)[C@H](Cc2ccc(O)cc2)NC(=O)[C@H](C(C)C)NC(=O)[C@H](CC(=O)O)NC(=O)[C@H](CC2CCOCC2)NC(=O)[C@H](CC2CCNCC2)NC(=O)CNC(=O)[C@H](C(C)(C)C)NC1=O [compound 438, Ac-hLeu-Y-C-Tbg-G-PipAla-ThpA-D-V-Y-C-5FW-F-hydroxyVal-dLys(R-DOTAGA)-COOH] (Ac-[hLeu]YC[Tle]G[Ala(piperidin-4-yl)][Ala(4-THP)]DVYC[Trp(5-F)]F[Val(3-OH)][dK](X4)-OH; disulfide 3-11) | B (25<%≤50) | A (%≤25) |  | > 9.00 | 
CC(=O)N[C@@H](CCC(C)C)C(=O)N[C@@H](Cc1ccc(O)cc1)C(=O)N[C@H]1CSSC[C@@H](C(=O)N[C@@H](Cc2c[nH]c3ccc(F)cc23)C(=O)N[C@@H](Cc2ccccc2)C(=O)N[C@H](C(=O)N[C@H](CCCCNC(=O)[C@H](CCCC(=O)O)NC(=O)CN2CCN(CC(=O)O)CCN(CC(=O)O)CCN(CC(=O)O)CC2)C(=O)O)C(C)(C)O)NC(=O)[C@H](Cc2ccc(O)cc2)NC(=O)[C@H](C(C)C)NC(=O)[C@H](CC(=O)O)NC(=O)[C@H](CC2CCOCC2)NC(=O)[C@H](CC2CCNCC2)NC(=O)CNC(=O)[C@H](C(C)(C)C)NC1=O [compound 464, Ac-hLeu-Y-C-Tbg-G-PipAla-ThpA-D-V-Y-C-5FW-F-hydroxyVal-dLys(hGlu-DOTA)-COOH] (Ac-[hLeu]YC[Tle]G[Ala(piperidin-4-yl)][Ala(4-THP)]DVYC[Trp(5-F)]F[Val(3-OH)][dK]([Aad-DOTA])-OH; disulfide 3-11) | C (%>50) | A (%≤25) |  | > 9.00 | 
CC(=O)N[C@@H](CCC(C)C)C(=O)N[C@@H](Cc1ccc(O)cc1)C(=O)N[C@H]1CSSC[C@@H](C(=O)N[C@@H](Cc2c[nH]c3ccc(F)cc23)C(=O)N[C@@H](Cc2ccccc2)C(=O)N[C@H](C(=O)N[C@H](CO)C(N)=O)C(C)(C)O)NC(=O)[C@H](Cc2ccc(O)cc2)NC(=O)[C@H](C(C)C)NC(=O)[C@H](CC(=O)O)NC(=O)[C@H](CC2CCOCC2)NC(=O)[C@H](CC2CCN(C(=O)CCOCCOCCOCCOCCNC(=O)CN3CCN(CC(=O)O)CCN(CC(=O)O)CCN(CC(=O)O)CC3)CC2)NC(=O)CNC(=O)[C@H](C(C)(C)C)NC1=O [compound 407, Ac-hLeu-Y-C-Tbg-G-Pip(PEG4-DOTA)Ala-ThpA-D-V-Y-C-5FW-F-hydroxyVal-dSer-CONH2] (Ac-[hLeu]YC[Tle]G[Ala(piperidin-4-yl)]([PEG4-DOTA])[Ala(4-THP)]DVYC[Trp(5-F)]F[Val(3-OH)][dS]-NH2; disulfide 3-11) | C (%>50) | A (%≤25) |  | > 9.00 | 
Ac-hLeu-Y-C-Tbg-G-Pip(PEG4-DOTA)Ala-ThpA-D-V-Y-C-5FW-[(2S, 3S)beta-Me-Phe]-hydroxyVal-dAla-COOH [compound 494] | C (%>50) | B (25<%≤50) |  |  | 
CC(=O)N[C@@H](CCC(C)C)C(=O)N[C@@H](Cc1ccc(O)cc1)C(=O)N[C@H]1CSSC[C@@H](C(=O)N[C@@H](Cc2c[nH]c3ccc(F)cc23)C(=O)N[C@@H](Cc2ccccc2)C(=O)N[C@H](C(=O)N[C@H](CCCCNC(=O)CN2CCN(CC(=O)O)CCN(CC(=O)O)CCN(CC(=O)O)CC2)C(=O)O)[C@@H](C)O)NC(=O)[C@H](Cc2ccc(O)cc2)NC(=O)[C@H](C(C)C)NC(=O)[C@H](CC(=O)O)NC(=O)[C@H](CC2CCOCC2)NC(=O)[C@H](CCCCN)N(C)C(=O)CNC(=O)[C@H](C(C)(C)C)NC1=O [compound 352, Ac-hLeu-Y-C-Tbg-G-NMeLys-ThpA-D-V-Y-C-5FW-F-Thr-dLys(DOTA)-COOH] (Ac-[hLeu]YC[Tle]G[NMeK][Ala(4-THP)]DVYC[Trp(5-F)]FT[dK](DOTA)-OH; disulfide 3-11) |  |  |  |  | 7.00 to 8.00
CCCC[C@@H]1NC(=O)[C@H](C(C)C)NC(=O)[C@H](CC(=O)O)NC(=O)[C@H](Cc2ccc(C(=O)O)cc2)NC(=O)[C@H](CCCCN)NC(=O)CNC(=O)[C@H](C(C)C)NC(=O)[C@@H](NC(=O)[C@H](Cc2ccc(O)cc2)NC(=O)[C@H](CCC(C)C)NC(C)=O)CSSC[C@@H](C(=O)N[C@@H](Cc2c[nH]c3ccc(F)cc23)C(=O)N[C@@H](Cc2ccccc2)C(=O)N2CCC[C@H]2C(=O)N[C@H](CCCCNC(=O)CN2CCN(CC(=O)O)CCN(CC(=O)O)CCN(CC(=O)O)CC2)C(N)=O)NC1=O [compound 287, Ac-hLeu-Y-C-V-G-K-4COOHPhe-D-V-Nle-C-5FW-F-Pro-dLys(DOTA)-CONH2] (Ac-[hLeu]YCVGK[Phe(4-COOH)]DV[Nle]C[Trp(5-F)]FP[dK](DOTA)-NH2; disulfide 3-11) |  |  |  |  | 7.00 to 8.00
